We go through five molecules from ChEMBL document CHEMBL1909046, “DrugMatrix in vitro pharmacology data”.

In assay [1] the target is Delta-type opioid receptor (Homo sapiens, UniProt P41143). It is filed as cell membranes, HEK293, Membrane. The following applies: hek293. Also: in other assays of this panel Not Active means under 50% inhibition at 10 µM.
Assay [2] addresses Epidermal growth factor receptor (Homo sapiens, UniProt P00533). In words: DRUGMATRIX: Protein Tyrosine Kinase, EGF Receptor enzyme inhibition (substrate: Poly(Glu:Tyr)). The format is cell-based, Insect cells. The following applies: insect cells; Not Active = under 50% inhibition at 10 µM.
A short description of assay [3]: DRUGMATRIX: Glutamate, AMPA radioligand binding (ligand: [3H] AMPA). It is filed as cell membranes, Rattus norvegicus, Wistar, Cerebral cortex, Membrane. The following applies: Not Active = under 50% inhibition at 10 µM.
The target of the next assay is Insulin receptor (Rattus norvegicus, UniProt P15127). The format is cell membranes, Wistar, Liver, Membrane. Also: in other assays of this panel Not Active means under 50% inhibition at 10 µM.
Sequence of Insulin receptor (P15127 27-759 limits assumed): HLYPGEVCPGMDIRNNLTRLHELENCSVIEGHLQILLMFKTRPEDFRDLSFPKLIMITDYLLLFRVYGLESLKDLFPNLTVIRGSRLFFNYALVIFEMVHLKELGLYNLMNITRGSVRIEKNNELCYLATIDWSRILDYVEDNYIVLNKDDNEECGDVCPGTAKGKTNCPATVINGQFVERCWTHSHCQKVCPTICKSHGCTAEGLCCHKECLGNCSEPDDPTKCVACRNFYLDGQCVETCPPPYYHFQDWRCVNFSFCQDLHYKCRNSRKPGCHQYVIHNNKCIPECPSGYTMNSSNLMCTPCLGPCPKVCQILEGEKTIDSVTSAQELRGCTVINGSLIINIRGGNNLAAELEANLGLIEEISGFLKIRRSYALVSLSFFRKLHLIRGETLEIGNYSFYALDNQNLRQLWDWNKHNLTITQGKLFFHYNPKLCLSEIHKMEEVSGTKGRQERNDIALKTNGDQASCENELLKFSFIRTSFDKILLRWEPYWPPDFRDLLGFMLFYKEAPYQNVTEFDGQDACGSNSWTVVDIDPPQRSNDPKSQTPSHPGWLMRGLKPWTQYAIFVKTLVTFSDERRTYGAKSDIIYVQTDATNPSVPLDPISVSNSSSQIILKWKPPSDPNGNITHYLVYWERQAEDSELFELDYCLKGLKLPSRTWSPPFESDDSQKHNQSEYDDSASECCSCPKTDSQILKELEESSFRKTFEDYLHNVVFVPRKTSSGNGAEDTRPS
Sequence of Insulin receptor (P15127 764-1383 limits assumed): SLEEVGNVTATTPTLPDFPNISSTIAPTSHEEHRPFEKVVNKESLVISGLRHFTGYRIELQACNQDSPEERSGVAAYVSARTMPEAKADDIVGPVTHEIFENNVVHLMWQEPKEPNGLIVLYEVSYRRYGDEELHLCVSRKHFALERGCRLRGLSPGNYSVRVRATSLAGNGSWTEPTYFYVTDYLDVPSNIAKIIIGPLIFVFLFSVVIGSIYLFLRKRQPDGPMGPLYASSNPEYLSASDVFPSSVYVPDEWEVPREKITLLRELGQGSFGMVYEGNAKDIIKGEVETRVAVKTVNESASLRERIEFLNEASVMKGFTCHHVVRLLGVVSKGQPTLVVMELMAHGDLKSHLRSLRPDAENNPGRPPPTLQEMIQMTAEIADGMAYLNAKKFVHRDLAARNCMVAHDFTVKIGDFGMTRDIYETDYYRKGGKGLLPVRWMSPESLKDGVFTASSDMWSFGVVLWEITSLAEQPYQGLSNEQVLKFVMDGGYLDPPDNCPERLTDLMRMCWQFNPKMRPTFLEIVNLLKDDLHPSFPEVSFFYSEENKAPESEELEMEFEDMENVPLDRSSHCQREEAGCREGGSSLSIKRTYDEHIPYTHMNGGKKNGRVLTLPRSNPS
Assay [4] has as its target T1, Cholecystokinin receptor type A (Homo sapiens, UniProt P32238). Also: in other assays of this panel Not Active means under 50% inhibition at 10 µM.
T1 sequence (P32238 whole entry): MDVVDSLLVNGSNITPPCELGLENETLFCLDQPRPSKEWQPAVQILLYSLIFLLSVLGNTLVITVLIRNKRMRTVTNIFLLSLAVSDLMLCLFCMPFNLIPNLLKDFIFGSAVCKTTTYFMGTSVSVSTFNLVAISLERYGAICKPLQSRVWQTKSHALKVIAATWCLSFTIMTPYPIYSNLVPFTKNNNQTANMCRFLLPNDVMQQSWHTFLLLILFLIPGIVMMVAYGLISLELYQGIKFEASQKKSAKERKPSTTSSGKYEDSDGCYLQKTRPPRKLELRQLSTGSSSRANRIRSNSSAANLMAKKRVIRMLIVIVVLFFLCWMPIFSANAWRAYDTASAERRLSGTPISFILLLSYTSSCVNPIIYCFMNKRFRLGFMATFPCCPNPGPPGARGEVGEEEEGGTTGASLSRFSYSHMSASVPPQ
The format is cell membranes, Membrane. Conditions: 1321-n1.

A short description of assay [5]: DRUGMATRIX: Imidazoline I2, Central radioligand binding (ligand: [3H] Idazoxan). It is filed as cell membranes, Rattus norvegicus, Wistar, Cerebral cortex, Membrane. Conditions: Not Active = under 50% inhibition at 10 µM.
For assay [6], the target named is T2, Alpha-1D adrenergic receptor (Homo sapiens, UniProt P25100). Also: in other assays of this panel Not Active means under 50% inhibition at 10 µM.
T2 sequence (P25100 whole entry): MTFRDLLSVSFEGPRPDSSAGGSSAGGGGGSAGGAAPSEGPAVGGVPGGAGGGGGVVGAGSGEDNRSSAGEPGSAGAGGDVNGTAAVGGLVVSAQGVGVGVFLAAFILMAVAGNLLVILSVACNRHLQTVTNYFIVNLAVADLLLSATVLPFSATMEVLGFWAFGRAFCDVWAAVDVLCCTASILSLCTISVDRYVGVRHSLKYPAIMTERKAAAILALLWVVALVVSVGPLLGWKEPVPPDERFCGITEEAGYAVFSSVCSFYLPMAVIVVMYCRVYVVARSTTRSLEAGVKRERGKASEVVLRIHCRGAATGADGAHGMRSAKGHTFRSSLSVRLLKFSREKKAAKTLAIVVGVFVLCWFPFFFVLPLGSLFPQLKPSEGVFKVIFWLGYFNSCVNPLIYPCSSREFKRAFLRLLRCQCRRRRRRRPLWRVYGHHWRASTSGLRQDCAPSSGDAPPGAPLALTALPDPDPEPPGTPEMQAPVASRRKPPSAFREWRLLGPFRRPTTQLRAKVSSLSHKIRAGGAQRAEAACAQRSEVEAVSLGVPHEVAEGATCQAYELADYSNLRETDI
It is filed as cell membranes, HEK293, Membrane.

Sequence of Epidermal growth factor receptor (P00533 whole entry): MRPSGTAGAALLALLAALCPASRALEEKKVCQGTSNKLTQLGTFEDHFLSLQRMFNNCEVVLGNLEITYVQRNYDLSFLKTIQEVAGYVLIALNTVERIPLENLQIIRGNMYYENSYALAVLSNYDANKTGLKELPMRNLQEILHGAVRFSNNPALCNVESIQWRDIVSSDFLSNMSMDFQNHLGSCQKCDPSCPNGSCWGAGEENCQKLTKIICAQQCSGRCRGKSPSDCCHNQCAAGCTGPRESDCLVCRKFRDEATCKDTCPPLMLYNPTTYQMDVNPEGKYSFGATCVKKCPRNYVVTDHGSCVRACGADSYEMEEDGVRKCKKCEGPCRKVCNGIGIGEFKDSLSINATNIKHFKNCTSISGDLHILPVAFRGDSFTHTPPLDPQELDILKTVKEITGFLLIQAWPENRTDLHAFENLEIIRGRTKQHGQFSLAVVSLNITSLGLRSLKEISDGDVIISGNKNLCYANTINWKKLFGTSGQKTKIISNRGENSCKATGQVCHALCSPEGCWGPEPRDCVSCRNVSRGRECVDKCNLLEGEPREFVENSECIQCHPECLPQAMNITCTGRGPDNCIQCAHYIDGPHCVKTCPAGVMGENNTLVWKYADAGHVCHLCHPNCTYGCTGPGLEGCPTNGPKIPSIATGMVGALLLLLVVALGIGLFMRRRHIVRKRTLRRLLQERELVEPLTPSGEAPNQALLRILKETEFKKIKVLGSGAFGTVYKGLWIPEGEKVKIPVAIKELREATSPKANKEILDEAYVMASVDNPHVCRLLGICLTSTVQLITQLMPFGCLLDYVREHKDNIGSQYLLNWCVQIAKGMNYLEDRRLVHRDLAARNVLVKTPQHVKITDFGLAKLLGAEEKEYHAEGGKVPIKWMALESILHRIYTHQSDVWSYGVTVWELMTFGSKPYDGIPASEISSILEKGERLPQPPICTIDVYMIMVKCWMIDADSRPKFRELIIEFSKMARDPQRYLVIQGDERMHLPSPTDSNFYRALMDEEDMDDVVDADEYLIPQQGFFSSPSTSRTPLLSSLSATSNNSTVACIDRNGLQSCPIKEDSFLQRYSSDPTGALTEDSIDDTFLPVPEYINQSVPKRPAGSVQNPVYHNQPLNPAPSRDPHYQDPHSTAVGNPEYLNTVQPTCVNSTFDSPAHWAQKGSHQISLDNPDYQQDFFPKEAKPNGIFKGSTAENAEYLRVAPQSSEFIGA
Sequence of Delta-type opioid receptor (P41143 whole entry): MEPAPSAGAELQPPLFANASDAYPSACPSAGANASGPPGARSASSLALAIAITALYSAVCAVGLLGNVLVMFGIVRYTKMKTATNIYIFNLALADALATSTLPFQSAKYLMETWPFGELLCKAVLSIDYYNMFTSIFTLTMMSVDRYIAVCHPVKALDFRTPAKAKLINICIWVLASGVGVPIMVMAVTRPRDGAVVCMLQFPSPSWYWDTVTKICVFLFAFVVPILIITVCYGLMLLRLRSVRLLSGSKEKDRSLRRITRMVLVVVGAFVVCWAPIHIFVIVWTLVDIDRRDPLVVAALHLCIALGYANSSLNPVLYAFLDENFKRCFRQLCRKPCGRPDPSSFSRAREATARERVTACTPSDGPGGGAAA

In the case of `CN1C[C@H](CNC(=O)OCc2ccccc2)C[C@@H]2c3cccc4c3c(cn4C)C[C@H]21` [METERGOLINE], the IC50 result in assay [1] is “Not Active”; in assay [2] it was “Not Active”; in assay [3], “Not Active”; against Insulin receptor, “Not Active”; in assay [4] it was “Not Active”; in assay [5] (read-out: IC50), 1920 nM. Further, the IC50 in assay [6] (read-out: IC50) is 136 nM. Besides, the inhibition constant (Ki) result in assay [3] was “Not Active”; in assay [5] (read-out: Ki), 1280 nM; in assay [6] (read-out: Ki), 67 nM.

For the molecule `C1CCN2C[C@@H]3C[C@@H](CN4CCCC[C@@H]34)[C@H]2C1` [SPARTEINE], the IC50 result (in assay [1]; in assay [2]; in assay [3]; at Insulin receptor; in assay [4]; in assay [5]) was “Not Active” throughout. Moreover, the IC50 entry in assay [6] (hek293) is recorded as “Not Active”. Besides, the inhibitory constant (Ki) result in assay [3] and in assay [5] was “Not Active” throughout.

As to `CO[C@@H]1[C@@H](OC)[C@H](C)[C@@](O)(CC(=O)O)O[C@H]1[C@H](C)[C@H]1O[C@@]2(CC[C@@](C)([C@H]3CC[C@@](C)([C@@H]4O[C@@H]([C@H]5O[C@](C)(O)[C@H](C)C[C@@H]5C)C[C@@H]4O[C@@H]4C[C@H](OC)[C@@H](OC)[C@H](C)O4)O3)O2)C[C@H](O)[C@H]1C.N` [MADURAMICIN], the half-maximal inhibitory concentration (IC50) entry (in assay [1]; in assay [2]; in assay [3]; at Insulin receptor; in assay [4]; in assay [5]) was “Not Active” throughout. In assay [6] (hek293), the IC50 entry was “Not Active”. For the same molecule, the Ki result in assay [3] and in assay [5] was “Not Active” in each case.

`CN1C(=O)OC(C)(C)C1=O` [TRIMETHADIONE]: the half-maximal inhibitory concentration (IC50) result (in assay [1]; in assay [2]; in assay [3]; against Insulin receptor; in assay [4]; in assay [5]) was “Not Active” throughout. The IC50 entry in assay [6] (hek293) is reported as “Not Active”. In addition, the inhibition constant (Ki) entry in assay [3] and in assay [5] was “Not Active” each time.

On to `CC1(C)[C@H](C(=O)O)N2C(=O)C[C@H]2S1(=O)=O` [SULBACTAM], for which the IC50 entry (in assay [1]; in assay [2]; in assay [3]; at Insulin receptor; in assay [4]; in assay [5]) was “Not Active” each time. Also, in assay [6] (hek293), the IC50 result was “Not Active”. Moreover, the Ki entry in assay [3] and in assay [5] was “Not Active” each time.

Usually IC50 stands for the concentration that gives 50% inhibition. By Ki is commonly meant the dissociation constant of the complex between target and ligand, obtained from inhibition or displacement.
